Test results reported in PMC12311865, “In Vitro Evaluation of the Potential Interactions of Zearalenone-14-sulfate and Zearalenone-14-glucuronide with Human Cytochrome P450 Enzymes, Organic Anion Transporting Polypeptides, and ATP-Binding Cassette Multidrug Transporters” (ACS Omega, 2025).

Columns and labels:
Format in all cases: biochemical
BCRP [1] = target: T1, BCRP (Homo sapiens, UniProt Q9UNQ0); assay: BCRP vanadate-sensitive ATPase activity assay; conditions: for effect on BCRP-dependent ATPase activity: up to 50 μM, Z14S effect seen even at 2 μM
T1 construct: made in house; host or cells: Sf9 insect cells (baculovirus)
T1 sequence (Q9UNQ0 1-655): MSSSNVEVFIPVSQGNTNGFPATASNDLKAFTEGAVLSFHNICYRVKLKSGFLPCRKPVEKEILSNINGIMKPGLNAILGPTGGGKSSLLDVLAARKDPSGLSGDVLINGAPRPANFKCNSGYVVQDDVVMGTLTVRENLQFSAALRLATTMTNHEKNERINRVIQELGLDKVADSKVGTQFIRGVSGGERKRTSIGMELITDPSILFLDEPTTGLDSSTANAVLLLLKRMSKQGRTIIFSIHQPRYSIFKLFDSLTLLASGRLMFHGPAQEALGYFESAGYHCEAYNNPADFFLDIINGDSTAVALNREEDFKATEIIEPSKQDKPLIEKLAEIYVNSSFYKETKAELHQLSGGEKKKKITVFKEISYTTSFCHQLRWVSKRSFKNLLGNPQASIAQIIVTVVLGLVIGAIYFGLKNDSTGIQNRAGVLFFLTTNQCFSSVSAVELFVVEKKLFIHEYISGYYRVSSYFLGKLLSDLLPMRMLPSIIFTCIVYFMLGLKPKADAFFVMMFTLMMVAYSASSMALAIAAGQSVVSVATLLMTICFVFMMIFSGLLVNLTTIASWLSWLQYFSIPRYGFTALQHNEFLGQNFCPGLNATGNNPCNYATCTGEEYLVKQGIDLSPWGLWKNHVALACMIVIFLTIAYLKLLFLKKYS
Experimental: (§1) ATPase activity was determined in Sf9 membrane vesicles containing human MDR1 or human BCRP prepared as described. − Appropriate amounts of vesicles (10 μg/50 μL) were used in the assays. Membrane vesicles were incubated with Mg-ATP (3 mM) for 25 min at 37 °C. Effects of the test compounds were examined up to 50 μM concentrations. […] ABC transporter function was determined as vanadate-sensitive ATPase activity. Liberated inorganic phosphate (Pi) was measured by a colorimetric reaction, as it has been reported. After 25 min, absorbance values were determined at 660 nm by a VictorX plate reader (PerkinElmer).

human MRP2 = target: T2, human MRP2 (Homo sapiens, UniProt Q92887); assay: biochemical; conditions: CDCF 5 μM
T2 construct: made in house; host or cells: Sf9 insect cells (baculovirus)
T2 sequence (Q92887 whole entry): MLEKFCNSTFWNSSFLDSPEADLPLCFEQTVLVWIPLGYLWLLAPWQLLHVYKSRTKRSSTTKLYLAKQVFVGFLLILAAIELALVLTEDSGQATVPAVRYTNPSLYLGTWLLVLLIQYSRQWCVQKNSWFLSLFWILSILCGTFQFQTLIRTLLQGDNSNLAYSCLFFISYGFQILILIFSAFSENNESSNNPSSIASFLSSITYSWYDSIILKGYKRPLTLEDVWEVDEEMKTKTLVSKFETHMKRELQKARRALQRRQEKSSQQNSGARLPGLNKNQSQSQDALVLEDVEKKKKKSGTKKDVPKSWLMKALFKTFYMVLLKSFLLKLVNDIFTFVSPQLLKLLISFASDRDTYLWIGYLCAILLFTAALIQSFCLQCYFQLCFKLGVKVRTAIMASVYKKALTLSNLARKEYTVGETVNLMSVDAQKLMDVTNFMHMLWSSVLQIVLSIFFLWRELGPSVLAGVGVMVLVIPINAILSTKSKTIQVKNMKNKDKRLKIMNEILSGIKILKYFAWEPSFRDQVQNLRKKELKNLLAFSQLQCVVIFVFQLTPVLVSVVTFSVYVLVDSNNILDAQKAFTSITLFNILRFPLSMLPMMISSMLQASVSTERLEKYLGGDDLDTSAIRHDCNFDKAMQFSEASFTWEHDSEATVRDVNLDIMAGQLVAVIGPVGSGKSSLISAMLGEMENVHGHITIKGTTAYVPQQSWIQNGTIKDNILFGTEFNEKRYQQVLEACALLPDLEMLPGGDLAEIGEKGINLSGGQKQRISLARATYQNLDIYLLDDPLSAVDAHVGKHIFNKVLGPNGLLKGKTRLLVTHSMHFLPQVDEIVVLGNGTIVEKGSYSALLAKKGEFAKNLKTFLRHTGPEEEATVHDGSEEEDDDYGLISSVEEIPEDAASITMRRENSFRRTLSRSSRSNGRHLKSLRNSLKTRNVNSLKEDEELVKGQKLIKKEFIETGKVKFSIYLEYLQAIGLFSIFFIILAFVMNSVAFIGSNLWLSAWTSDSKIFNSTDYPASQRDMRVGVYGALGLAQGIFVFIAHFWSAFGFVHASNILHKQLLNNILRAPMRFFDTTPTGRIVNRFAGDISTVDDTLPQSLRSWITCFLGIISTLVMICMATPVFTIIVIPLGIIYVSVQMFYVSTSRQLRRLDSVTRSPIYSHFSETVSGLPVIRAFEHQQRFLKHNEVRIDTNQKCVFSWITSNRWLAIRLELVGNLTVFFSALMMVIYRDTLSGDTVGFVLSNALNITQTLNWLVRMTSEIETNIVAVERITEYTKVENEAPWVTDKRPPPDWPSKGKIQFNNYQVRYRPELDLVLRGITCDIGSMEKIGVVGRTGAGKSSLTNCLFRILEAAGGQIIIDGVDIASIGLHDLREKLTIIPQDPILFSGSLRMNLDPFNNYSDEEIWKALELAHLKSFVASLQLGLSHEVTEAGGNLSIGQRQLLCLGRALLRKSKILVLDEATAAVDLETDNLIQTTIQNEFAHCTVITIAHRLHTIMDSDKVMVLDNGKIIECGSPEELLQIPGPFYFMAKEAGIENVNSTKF
Experimental: Experiments were performed in insect membrane vesicles, as described previously. Briefly, human MDR1, BCRP, and MRP2 were expressed in Sf9 insect cells by baculoviruses. On the third day of infection, cells were collected and membrane vesicles were obtained by mechanical disruption and differential centrifugation. To get full activity for BCRP, the cholesterol levels of the vesicles were adjusted to the level of mammalian membranes. Vesicles were stored at −80 °C, and the total protein content of the preparations was measured by the Lowry method (used as a reference for the quantity). […] A 100 μL volume of fluorescence stabilizer was added to the samples (DMSO for LY, 0.1 M H2SO4 for NMQ, and 0.1 M NaOH for CDCF). Fluorescence of samples was measured by plate readers (Victor X3 and Enspire PerkinElmer; Waltham, MA) at appropriate wavelengths (filters in the Victor X3 reader were 405/535 nm for LY and 492/635 nm for CDCF; while in the Enspire reader, NMQ was measured at 360/430 nm excitation/emission wavelengths). ABC-related transport was calculated by subtracting passive uptake measured without Mg-ATP from values measured in the presence of Mg-ATP.

MDR1 = target: T3, MDR1 (Homo sapiens, UniProt P08183); assay: MDR1 vanadate-sensitive ATPase activity assay; conditions: up to 50 μM; Sf9 membrane vesicles
T3 construct: made in house; host or cells: Sf9 insect cells (baculovirus)
T3 sequence (P08183 whole entry): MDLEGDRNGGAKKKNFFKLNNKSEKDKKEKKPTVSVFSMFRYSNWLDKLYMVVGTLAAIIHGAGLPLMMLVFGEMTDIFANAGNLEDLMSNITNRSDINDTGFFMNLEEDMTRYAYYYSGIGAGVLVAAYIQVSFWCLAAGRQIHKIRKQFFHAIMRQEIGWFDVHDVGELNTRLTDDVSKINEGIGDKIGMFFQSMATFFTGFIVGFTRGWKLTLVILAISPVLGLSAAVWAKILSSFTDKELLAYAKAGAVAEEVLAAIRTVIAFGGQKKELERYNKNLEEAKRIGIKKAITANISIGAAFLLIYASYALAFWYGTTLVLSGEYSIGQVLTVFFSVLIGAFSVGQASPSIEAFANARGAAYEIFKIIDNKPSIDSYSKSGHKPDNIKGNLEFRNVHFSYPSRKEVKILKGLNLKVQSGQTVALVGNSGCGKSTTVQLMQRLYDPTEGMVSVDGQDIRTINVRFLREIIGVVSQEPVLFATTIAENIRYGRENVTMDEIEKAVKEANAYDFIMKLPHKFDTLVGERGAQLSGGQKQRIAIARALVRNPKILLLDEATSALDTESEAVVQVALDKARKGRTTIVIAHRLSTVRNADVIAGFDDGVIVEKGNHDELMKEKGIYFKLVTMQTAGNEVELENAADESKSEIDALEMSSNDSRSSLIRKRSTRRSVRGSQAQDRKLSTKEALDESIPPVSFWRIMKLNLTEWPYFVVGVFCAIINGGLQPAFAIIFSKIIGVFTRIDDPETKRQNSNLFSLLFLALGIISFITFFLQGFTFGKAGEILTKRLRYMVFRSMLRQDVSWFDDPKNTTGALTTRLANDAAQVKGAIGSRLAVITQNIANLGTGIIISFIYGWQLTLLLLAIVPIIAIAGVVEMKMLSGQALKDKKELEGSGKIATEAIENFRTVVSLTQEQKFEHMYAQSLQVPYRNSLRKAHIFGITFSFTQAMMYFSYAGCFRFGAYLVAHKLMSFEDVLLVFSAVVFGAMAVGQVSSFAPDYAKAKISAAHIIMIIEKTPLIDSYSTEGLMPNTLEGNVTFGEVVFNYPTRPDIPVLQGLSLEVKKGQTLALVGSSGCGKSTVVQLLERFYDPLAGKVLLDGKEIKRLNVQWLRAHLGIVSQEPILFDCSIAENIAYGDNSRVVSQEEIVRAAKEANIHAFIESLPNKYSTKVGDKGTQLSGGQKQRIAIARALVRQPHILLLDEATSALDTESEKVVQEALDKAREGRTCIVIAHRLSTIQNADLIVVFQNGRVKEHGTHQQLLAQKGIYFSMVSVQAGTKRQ
Experimental: as §1

BCRP [2] = target: T1, BCRP; assay: BCRP-mediated LY vesicular transport (Sf9 membrane vesicles); conditions: for inhibition at 10 min, 50 μM: human, read-out: inhibition of BCRP-driven vesicular uptake of LY
Experimental: Experiments were performed in insect membrane vesicles, as described previously. Briefly, human MDR1, BCRP, and MRP2 were expressed in Sf9 insect cells by baculoviruses. On the third day of infection, cells were collected and membrane vesicles were obtained by mechanical disruption and differential centrifugation. To get full activity for BCRP, the cholesterol levels of the vesicles were adjusted to the level of mammalian membranes. Vesicles were stored at −80 °C, and the total protein content of the preparations was measured by the Lowry method (used as a reference for the quantity). Membrane vesicles (50 μg protein/sample) were incubated at 37 °C for 10 min (without or with 4 mM Mg-ATP) in 50 μL volume in the presence of transporter-specific fluorescent substrates: N-methylquinidine (NMQ; 5 μM) for MDR1, lucifer yellow (LY; 10 μM) for BCRP, and 5(6)-carboxy-2′,7′-dichlorofluorescein (CDCF; 5 μM) for MRP2. […] ATP-dependent (4 mM) uptake of fluorescent substrates was examined in the presence of 0–50 μM concentrations of mycotoxins (ZEN, Z14S, or Z14GA). […] After incubation, samples were rapidly filtered and washed on a filter plate (MSFBN6B10; Millipore, Burlington, MA). Accumulated substrates in vesicles were solved back from the filter with 100 μL of SDS (10%) and centrifuged into another plate. A 100 μL volume of fluorescence stabilizer was added to the samples (DMSO for LY, 0.1 M H2SO4 for NMQ, and 0.1 M NaOH for CDCF). Fluorescence of samples was measured by plate readers (Victor X3 and Enspire PerkinElmer; Waltham, MA) at appropriate wavelengths (filters in the Victor X3 reader were 405/535 nm for LY and 492/635 nm for CDCF; while in the Enspire reader, NMQ was measured at 360/430 nm excitation/emission wavelengths). ABC-related transport was calculated by subtracting passive uptake measured without Mg-ATP from values measured in the presence of Mg-ATP.

Row | Compound | effect on BCRP-dependent ATPase activity (BCRP [1]) | IC50 (human MRP2; Sf9 membrane vesicles, read-out: IC50 for MRP2-mediated CDCF transport) | effect on MDR1 ATPase activity (MDR1) | effect on BCRP-driven vesicular uptake of LY (BCRP [2]; 0–50 μM, LY 10 μM) | effect on MRP2-dependent transport of CDCF (human MRP2; 0–50 μM) | IC50 (BCRP [2]) | inhibition at 10 min, 50 μM (BCRP [2]; LY 10 μM) | effect on basal ATPase activity of BCRP (BCRP [1]; 50 μM)
1 | C[C@H]1CCCC(=O)CCC/C=C/c2cc(O[C@@H]3O[C@H](C(=O)O)[C@@H](O)[C@H](O)[C@H]3O)cc(O)c2C(=O)O1 [Z14GA, Zearalenone-14-glucuronide] | did not affect | > 10 µM | did not modify | weak inhibitory action | – | – | – | –
2 | C[C@H]1CCCC(=O)CCC/C=C/c2cc(OS(=O)(=O)O)cc(O)c2C(=O)O1 [Z14S, zearalenone-14-sulfate] | moderate increase | – | did not modify | – | weak inhibitory effect | 4.4 µM | > 90% | –
3 | C[C@H]1CCCC(=O)CCC/C=C/c2cc(O)cc(O)c2C(=O)O1 [ZEN, Zearalenone] | no relevant impact | – | considerable elevation even at 5 μM concentration | – | – | 2.6 µM | > 90% | slight inhibition
